“Also recorded” adds a separate entry of the source.
Legend:
[1] = tested on: collagen footpad edema in rats; assay: Collagen arthritis assay; assay type: in vivo, rat; conditions: for paw volume differences after treatment: FIG. 3; for activity in rat collagen model: dose not stated (Assay Results summary)
Protocol: This assay is commonly used to screen and evaluate anti-inflammatory drug candidates. See, for example, Larsson et al., Arthritis & Rheumatism, 33:693–701, 1990 and references cited therein.
For these experiments, Female DA rats (7–8 weeks of age) were immunized with Type II collagen derived from bovine nasal septum as described in Cremer et al., J. of Immunology, 149:1045–1053, 1992. The collagen was dissolved and administered with incomplete Freund's adjuvant. Standard precautions were taken to avoid denaturing the collagen before its administration such as keeping the solution cold during preparation. Rats were immunized in the base of the tail on day 0. Dosing began on day 10 with rat paws weighed and volumes taken on day 21. The arthritis was evaluated by comparing paw weights and/or paw volumes at day 21. Compounds reducing paw weight or paw volumes by at least about 30% compared to the controls were also considered effective in this assay.

[2] = tested on: chronic constriction injury (CCI) rat model of peripheral neuropathy; assay: Cold allodynia assay in chronic constriction injury (CCI) rats; assay type: in vivo
Protocol: The purpose of the following studies was to determine whether test compounds had analgesic activity in a chronic constriction injury (CCI) rat model of peripheral neuropathy. Neuropathic rats were treated with PBN, and other test compounds or 2.5% DMSO in 1.0% MC as a vehicle and tested in a cold allodynia assay to evaluate nociceptive responses.
One week prior to the cold allodynia assay, CCI rats were prepared as follows. Male Sprague Dawley rats (158–224 g) had their right sciatic nerve loosely ligated under aseptic conditions. To observe the cold allodynia response, their paw withdrawal latency response was determined by placing rats in a cold water bath (2–4° C., 2.5 cm deep). […] Rats rendered neuropathic in the right limb display an exaggerated withdrawal response on the neuropathic side (right rear limb). For the cold allodynia assay, two pre-dose latency times to cold were recorded. The end point was an exaggerated removal of the paw from the water. […] The remaining rats were divided into treatment groups. Two separate latency times were obtained for each rat before the dose of each drug. In the first study shown in FIG. 1, rats were then dosed with Compound 1 (30 mg/kg, po) or PBN (100 mg/kg, po) as a suspension in Veh, or Veh alone (1 ml/kg, po). In the second study shown as FIG. 2, three different doses of Compound 1 (10, 30, 100 mg/kg, po) were administered to CCI rats. In both studies, latency to withdraw the ligated leg up above water level was recorded using an electronic timer. The tester was blinded to the animal's treatment group at the time of testing.
Maximum time of latency in any trial was 20 sec. Statistical significance was assessed for paired groups (pre-dose vs. post-dose) using a Wilcoxon test and between non-paired groups using a Kruskal-Wallis with a Dunn's test post-hoc. A probability value of p<0.05 was identified as statistically significant.

[3] = tested on: Taxol-induced neuropathic pain model in mice; assay: Taxol-induced neuropathic pain model, mechanical allodynia (von Frey filament); assay type: in vivo
Description: Taxol is a chemotherapeutic reagent for treatment of cancer patients. Cancer patients under Taxol chemotherapy can develop neuropathic pain, with a symptom of severe mechanical allodynia, so that a light touch (non-noxious stimulus in a normal condition) becomes painful. […] Recent studies have shown that Taxol is involved in TNF-alpha release in microglia cells. As one of the clinically relevant models, Taxol-induced neuropathic pain was developed in mice and rats. It is believed that small-diameter high threshold nociceptive C-fibers in the peripheral sensory nervous systems are largely, if not exclusively, affected in the Taxol-induced neuropathic pain models.
In this series of experiments, five-week old, male C57B1/6 mice were purchased from Charles River and housed at the Renovis animal facility in South San Francisco. Mice were trained for one week in an enclosure made of Plexiglas with dimensions of 2 in×2.5 in×3.5 in (W, H, and L) with a meshed metal support. The baseline of response to mechanical stimulus was measured using a von Frey Filament (0.6 g=3.84 mN). Normally, the baseline response is between 0 to 40%.
Taxol was dissolved (1 mg/ml) in 50% Cremophor EL and 50% alcohol, and freshly diluted with saline to the final concentration of 0.2 mg/ml in 10% Cremophor EL, 10% alcohol. Mice were administered Taxol at 1 mg/kg of body weight, via i.p. daily, while the animals of the control group received vehicle (10% Cremophor EL and 10% alcohol in saline).
Animals receiving this daily dose of Taxol will develop neuropathic pain. The mechanical allodynia was measured at day 7, 8, or 14 after Taxol administration.
A quantity of 200 mg of compound 14 (Example 14) was dissolved in 0.4 ml of 100% DMSO to yield a concentration of 500 mg/ml, and was kept at 4° C. until use. Methylcellulose was dissolved in deionized-distilled water to yield a concentration of 1%. The freshly prepared meythlcellulose was used to make a suspension of the compound, 10 mg of compound in 2.5% DMSO (V/V) and 1% methylcellulose. The suspension was sonicated for 6 min with a 5 second interval every 30 seconds before administration to animals.
A quantity of 50 mg/kg (body weight) compound or vehicle (2.5% DMSO and 1% methylcellulose), 100 μl/20 g (body weight) was given to animals via gavage feeding procedure in a randomized, blinded fashion. The animals were then placed in the enclosure for assay. Mechanical allodynia was measured with von Frey filament (0.6 g=[…]) at various times after administration.
Referring to FIG. 5, baseline in the group of animals was measured as 25+/−4% (n=24, ±SEM) before induction of neuropathic pain with Taxol (or sham treatment), where the response was measured with a von Frey filament (0.6 g=3.84 mN) as the percent of trials a withdrawal response is observed after probing with the filament. The higher the percentage, the greater the inferred pain.
Sixteen animals were treated with Taxol daily to induce neuropathic pain. Mechanical allodynia was assayed at day 8; average withdrawal response was measured as 81±5% (n=16, ±SEM). Sixteen animals were treated with matching vehicle to create sham animals. The Taxol and sham animals were then separated randomly into two groups of 8 animals each for drug vs. vehicle testing. Withdrawal responses to a von Frey filament probe were measured at 1, 6, 24, and 72 hours post-administration of drug or vehicle control, and averaged for each animal. […] Negative values reflect a reduction in inferred pain.
For mouse neuropathic pain studies, C57B1/6 strain, five-weeks old male mice were obtained from Charles River, San Diego, Calif. A total of 120 mice were used for the studies. 4 mice per cage were housed under standard conditions with 12-hour light and 12-hour dark cycles (in Renovis, Inc, South San Francisco facility). For rat neuropathic pain studies, male Sprague-Dawley rats, with body weights ranging from 180–200 grams, were obtained from Harlan. A total of 42 rats were used for this study. […]

[4] = tested on: adjuvant-induced footpad edema in rats; assay: Adjuvant assay (adjuvant-induced footpad edema); assay type: in vivo, rat
Protocol: This assay is a model for chronic inflammation. See, for example, B. M. Weichman, “Rat Adjuvant Arthritis: A Model of Chronic Inflammation,” Pharmacological Methods in the Control of Inflammation, 363–380 (1989) and references cited therein.
In this assay, Male Lewis rats weighing between 180–220 g were lightly anesthetized with an ip injection of 30 mg/kg of sodium pentobarbital (50 mg/ml). Desiccated Mycobacterium butyrium (Difco, 20 mg/ml) suspended in mineral oil was injected (50 μL) at both sides of the base of the tail under the skin. A line was tattooed on both rear paws at 5 mm above the angle of the ankle. The paw volumes, under the line, were measured by volume displacement using a plethysmometer (Ugo Basile) at the day of adjuvant injection (day 0) and on day 14. On day 14, animals with paw volumes equal to the mean of paw volumes ±SD were randomized into treatment groups. Rats which fell outside ±1 SD were not used in the experiment. One group received vehicle (1% methyl cellulose) by the po route and the other group received indomethacin (3 mg/kg suspended in 1% methyl cellulose). Dosing began on day 14, and continued until final assessment on day 21 post-adjuvant injection. […] This group has a slightly positive volume increase when paw volumes on day 21 are subtracted from day 0 values due to growth of the rat. […]

[5] = FIG. 2, 30 mg/kg, p.o., 90 min post-dose
[6] = FIG. 2, 100 mg/kg, p.o., 90 min post-dose
[7] = Taxol/mice, P.O., Single dosing, 50 Mg/Kg body weight
[8] = dose not stated (Assay Results summary)

## CC(C)(C)[N+]([O-])=CCCc1ccccc1 [Compound 1, N-tert-butyl-C-(2-phenylethyl)nitrone]
[1]; dose not stated
  paw volume differences after treatment: unexpected activity
[1]; FIG. 4, lowering indicates relief from pain
  total gait scores as an index of pain: significant activity; also recorded: activity as an analgesic
[1]
  activity in rat collagen model: significantly active
[2]; 10 mg/kg, po
  activity in a model of painful peripheral neuropathy: significantly active
[2]; FIG. 1, 30 mg/kg, p.o., 90 min post-dose, Kruskal-Wallis, Dunn's test
  post-dose latency score vs. vehicle: signficant post-dose latency score over vehicle
[2]; FIG. 1, 30 mg/kg, p.o., 90 min post-dose, Wilcoxon test
  latency to cold stimulus, post-dose vs. pre-dose score: Significantly higher latency scores
[2]; FIG. 2, 10 mg/kg, p.o., 90 min post-dose
  latency time, post-dose vs. pre-dose score: significantly increased latency time
[2]; [5]
  latency time, post-dose vs. pre-dose score: significantly increased latency time
  post-dose latency score vs. vehicle: significant post-dose latency score over vehicle
[2]; [6]
  latency time, post-dose vs. pre-dose score: significantly increased latency time
  post-dose latency score vs. vehicle: significant post-dose latency score over vehicle
[3]; 50 mg/kg single dose via oral gavage
  time postdosing of analgesic effect: 1 h
[3]; 50 mg/kg single dose via oral gavage, von Frey filament 0.6 g, measured 1, 6, 24, up to 48 or 72 hours postdosing
  effect on mechanical allodynia (Taxol-induced pain): analgesic effect
[3]; [7]
  Effective time Hour post dosing: ~1 h
  extent of block of mechanical allodynia: partial

## COc1ccc(CCC=[N+]([O-])C(C)(C)C)cc1 [Compound 4, N-tert-butyl-C-[2-(4-methoxyphenyl)ethyl]nitrone]
[3]; [7]
  Effective time Hour post dosing: None via p.o.

## CC(C)Oc1ccc(CCC=[N+]([O-])C(C)(C)C)cc1 [Compound 6, N-tert-butyl-C-[2-(4-isopropoxyphenyl)ethyl]nitrone]
[3]; [7]
  Effective time Hour post dosing: None via p.o.

## CCOc1ccc(CCC=[N+]([O-])C(C)(C)C)cc1 [Compound 7, N-tert-butyl-C-[2-(4-ethoxyphenyl)ethyl]nitrone]
other
  melting point: 54 to 57 °C
[3]; [7]
  Effective time Hour post dosing: None via p.o.

## CC(C)(C)[N+]([O-])=CCCc1ccc(NS(=O)(=O)c2ccccc2)cc1 [Compound 10, N-tert-butyl-C-[2-(4-benzenesulfonamidophenyl)ethyl]nitrone]
other
  melting point: 160 °C

## CCC(C=[N+]([O-])C(C)(C)C)c1ccc(C(C)(C)C)cc1 (stereo not drawn) [Compound 15, N-tert-butyl-C-[1-(4-tert-butylphenyl)propyl]nitrone]
[3]; [7]
  Effective time Hour post dosing: None via p.o.

## COc1ccc(CC(C)C=[N+]([O-])C(C)(C)C)cc1 (stereo not drawn) [Compound 16, N-tert-butyl-C-[1–2-(4-methoxyphenyl)methylethyl]nitrone]
[3]; [7]
  Effective time Hour post dosing: None via p.o.

## [O-][N+](=CCCc1ccccc1)C1CCCCC1 [Compound 18, N-Cyclohexyl-C-(2-phenylethyl)nitrone]
other
  melting point: 97.2 °C

## CC(C)(C)c1cc(CCC=[N+]([O-])C(C)(C)C)cc(C(C)(C)C)c1O [Compound 21]
[3]; [7]
  Effective time Hour post dosing: None via p.o.

## COc1ccc2c(c1)c(CC(=O)O)c(C)n2C(=O)c1ccc(Cl)cc1 [Indomethacin]
[4]; 3 mg/kg, po, dosing day 14 to day 21 post-adjuvant
  paw volume as compared to vehicle controls: significantly reduced paw volume

## CC(C)(C)[N+]([O-])=Cc1ccccc1 [PBN, N-tert-butyl phenyl nitrone, reference compound]
[4]; [8]
  activity in the adjuvant assay: completely inactive
[1]; 100 mg/kg
  paw volume differences after treatment: inactive
[1]
  activity in rat collagen model: completely inactive
[2]; FIG. 1, 100 mg/kg, p.o., 90 min post-dose
  activity in cold allodynia assay: completely inactive
[2]; [8]
  activity in the analgesic assay: completely inactive
